Source: patent US8101760B2, “Glucocorticoid receptor modulator and methods of use” (Eli Lilly and Company, priority 2007, dated 2012)

Experiments:
[1] = target: T1, human progesterone receptor (PR) (Homo sapiens, UniProt P06401); assay: Nuclear hormone receptor functional modulation assay (GRE-luciferase, HEK293), PR; assay type: cell-based
T1 construct: expressed in transfected cells; host or cells: HEK293, transient transfection (Fugene), CMV promoter plasmid
T1 sequence (P06401 1-933): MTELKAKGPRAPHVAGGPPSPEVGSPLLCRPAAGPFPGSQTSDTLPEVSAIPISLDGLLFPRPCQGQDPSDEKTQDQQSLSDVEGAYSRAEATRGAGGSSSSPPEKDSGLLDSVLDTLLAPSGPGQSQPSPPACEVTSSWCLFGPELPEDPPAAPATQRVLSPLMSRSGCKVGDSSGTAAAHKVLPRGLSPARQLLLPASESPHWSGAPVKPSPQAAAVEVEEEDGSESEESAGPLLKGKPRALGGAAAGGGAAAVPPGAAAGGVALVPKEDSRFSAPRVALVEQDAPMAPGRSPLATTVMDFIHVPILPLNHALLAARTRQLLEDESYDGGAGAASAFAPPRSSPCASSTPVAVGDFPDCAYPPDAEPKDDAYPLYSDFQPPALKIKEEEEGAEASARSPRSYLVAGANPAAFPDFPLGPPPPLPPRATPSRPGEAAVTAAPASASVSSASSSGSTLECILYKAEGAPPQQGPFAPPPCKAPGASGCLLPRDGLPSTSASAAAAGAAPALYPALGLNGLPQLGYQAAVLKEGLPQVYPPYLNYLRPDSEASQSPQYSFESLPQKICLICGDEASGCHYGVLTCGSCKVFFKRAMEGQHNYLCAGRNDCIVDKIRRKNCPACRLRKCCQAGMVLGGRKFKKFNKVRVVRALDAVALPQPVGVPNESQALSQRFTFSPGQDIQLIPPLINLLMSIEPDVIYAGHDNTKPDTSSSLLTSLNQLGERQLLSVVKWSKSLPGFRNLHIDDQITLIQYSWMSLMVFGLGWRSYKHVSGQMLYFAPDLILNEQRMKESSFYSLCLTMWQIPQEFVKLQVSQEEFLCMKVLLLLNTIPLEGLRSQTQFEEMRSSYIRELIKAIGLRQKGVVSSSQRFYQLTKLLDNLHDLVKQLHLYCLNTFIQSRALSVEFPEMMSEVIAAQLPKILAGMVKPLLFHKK
Source text: The solvents, reagents, and ligands employed in the functional assay are readily available from commercial sources, or can be prepared by one of ordinary skill in the art.
Human embryonic kidney HEK293 cells are transfected with steroid hormone receptor and reporter gene plasmids using Fugene™ (Roche Diganostics) transfection reagent. Briefly, the reporter plasmid containing two copies of probasin ARE (androgen response element 5′GGTTCTTGGAGTACT3′ (SEQ ID NO:1)) and TK(thymidine kinase) promoter upstream of the luciferase reporter cDNA, is transfected into HEK293 cells with a plasmid constitutively expressing human androgen receptor (AR) using viral CMV(cytomegalovirus) promoter. The reporter plasmid containing two copies of GRE (glucocorticoid response element 5′TGTACAGGATGTTCT′3 (SEQ ID NO:2)) and TK promoter upstream of the luciferase reporter cDNA is transfected with a plasmid constitutively expressing either human glucocorticoid receptor (GR), human mineralocorticoid receptor (MR), or human progesterone receptor (PR) using viral CMV promoter. Cells are transfected in T150 cm flasks in DMEM media with 5% charcoal-stripped Fetal Bovine Serum (FBS). […] In the antagonist mode for the assays, low concentrations of agonist for each respective receptor are added to the media (0.25 nM dexamethasone for GR, 0.3 nM of methyltrienolone for AR, 0.05 nM of promegestone for PR and 0.05 nM aldosterone for MR), and the ability of test compound to antagonize the agonist response is determined. After 24 hours of incubation with test compounds, cells are lysed and luciferase activity is determined using standard techniques.
Data are fitted to a four parameter-fit logistic curve fit to determine EC50 values. […] IC50 values may be determined similarly using antagonist mode assay data. Percent inhibitions may also be determined relative to the response in the presence of agonist alone, as described above.

[2] = test system: LPS-stimulated TNF-α production in PMA-differentiated U937 cells; assay: GR-mediated transrepression: LPS-stimulated TNF-α production in PMA-differentiated U937 cells; assay type: cell-based; conditions: Homo sapiens, U-937, mean of 6 determinations, read-out: EC50, inhibition of TNF-α expression
Method: 2. LPS-Stimulated TNF-α Production in PMA-Differentiated U937 Cells:
Human U937 pre-monocytic cells (ATCC Catalog #CRL-1593.2) are grown in complete RPMI 1640 medium (ATCC Catalog #30-2001) containing 10% fetal bovine serum (FBS). To allow monocytes to differentiate to adherent macrophages, U937 cells are washed in PBS (Calcium, magnesium-free) and resuspended in fresh RPMI medium containing 20 nM phorbol 12-myristate-13-acetate (PMA) overnight. After differentiation, test compounds are added to the cells in the 96-well plate at various concentrations ranging from about […] to 4.64 μM. 1-hour post treatment with test compound, LPS is added at final concentration of 100 ng/mL and the reaction mixture is incubated overnight.
TNF-α production is measured with an ELISA kit (R&D Systems, Inc., Minneapolis, Minn., U.S.A.) using standard techniques. Briefly, 25 μL cell-free supernatant is transferred to another 96-well plate and 75 μL of assay buffer is added. TNF-α is quantified by reading absorbance at 450 nm. A standard curve of absorbance versus TNF-α concentration is constructed and used to determine the concentration of TNF-α in experimental samples.

EC50 ([1]; agonist mode, activating transcription): > 10000 nM
modulation of gene expression mediated by PR ([1]; functional modulation, in words): only limited activity
PR % Eff. ([1]; percent efficacy at 10 μM relative to 30 nM promegestone, mean of 3): 40.1%
EC50 [2]: ~30 nM
Compound: CC/C(=C1\c2ccc(Cl)cc2OCc2ncccc21)c1cccc(NS(C)(=O)=O)c1 [Compound (I), (E)-N-{3-[1-(8-Chloro-11H-10-oxa-1-aza-dibenzo[a,d]cyclohepten-5-ylidene)-propyl]-phenyl}-methanesulfonamide]
